Molecules are shown by their SMILES.

This assay concerns the target Coagulation factor X (Homo sapiens) (UniProt P00742). The experiment in a line: Compound was evaluated for the inhibition of anti-thrombin III (AT III)-mediated coagulation proteinase factor Xa.

Coagulation factor X (Homo sapiens), sequence (P00742 41-179 limits assumed): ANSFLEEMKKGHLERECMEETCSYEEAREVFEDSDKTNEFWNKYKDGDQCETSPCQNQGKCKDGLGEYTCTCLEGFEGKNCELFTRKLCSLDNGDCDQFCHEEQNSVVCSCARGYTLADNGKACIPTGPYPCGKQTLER
Coagulation factor X (Homo sapiens), sequence (P00742 235-488 limits assumed): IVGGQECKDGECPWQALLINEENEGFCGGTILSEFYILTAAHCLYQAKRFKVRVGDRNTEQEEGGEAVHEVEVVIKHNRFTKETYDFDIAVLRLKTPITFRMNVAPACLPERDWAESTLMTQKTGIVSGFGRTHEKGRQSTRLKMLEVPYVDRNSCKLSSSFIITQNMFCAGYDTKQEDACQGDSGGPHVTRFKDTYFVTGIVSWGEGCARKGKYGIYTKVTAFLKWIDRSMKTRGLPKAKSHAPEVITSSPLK

As for `CCCCO[C@@H]1[C@@H](OS(=O)(=O)O)[C@H](O[C@H]2[C@H](OC)[C@@H](OC)[C@H](O[C@H]3[C@H](OS(=O)(=O)O)[C@@H](OS(=O)(=O)O)[C@H](O[C@H]4[C@H](OC)[C@@H](OS(=O)(=O)O)[C@H](O[C@H]5[C@H](OS(=O)(=O)O)[C@@H](OS(=O)(=O)O)[C@@H](OC)O[C@@H]5COS(=O)(=O)O)O[C@H]4C(=O)O)O[C@@H]3COS(=O)(=O)O)O[C@@H]2C(=O)O)O[C@H](COS(=O)(=O)O)[C@H]1OCCCC`, the Activity amounted to 1500 U mg-1.
The figure for `CCCCO[C@@H]1[C@@H](OS(=O)(=O)O)[C@H](O[C@H]2[C@H](OS(=O)(=O)O)[C@@H](OS(=O)(=O)O)[C@@H](OC)O[C@@H]2COS(=O)(=O)O)O[C@@H](C(=O)O)[C@H]1O[C@@H]1O[C@H](COS(=O)(=O)O)[C@@H](O[C@@H]2O[C@H](C(=O)O)[C@@H](O[C@@H]3O[C@H](COS(=O)(=O)O)[C@@H](OC)[C@H](OC)[C@H]3OS(=O)(=O)O)[C@H](OC)[C@H]2OC)[C@H](OS(=O)(=O)O)[C@H]1OS(=O)(=O)O` is 994 U mg-1; for `CCCCCCCCO[C@@H]1[C@@H](OS(=O)(=O)O)[C@H](O[C@H]2[C@H](OS(=O)(=O)O)[C@@H](OS(=O)(=O)O)[C@@H](OC)O[C@@H]2COS(=O)(=O)O)O[C@@H](C(=O)O)[C@H]1O[C@@H]1O[C@H](COS(=O)(=O)O)[C@@H](O[C@@H]2O[C@H](C(=O)O)[C@@H](O[C@@H]3O[C@H](COS(=O)(=O)O)[C@@H](OC)[C@H](OC)[C@H]3OS(=O)(=O)O)[C@H](OCCCC)[C@H]2OCCCC)[C@H](OS(=O)(=O)O)[C@H]1OS(=O)(=O)O` it is 700 U mg-1.
As for `CO[C@H]1O[C@H](COS(=O)(=O)O)[C@@H](O[C@@H]2O[C@@H](C(=O)O)[C@@H](O[C@@H]3O[C@H](COS(=O)(=O)O)[C@@H](O[C@@H]4O[C@H](C(=O)O)[C@@H](O[C@@H]5O[C@H](COS(=O)(=O)O)[C@@H](OC)[C@H](OC)[C@H]5OS(=O)(=O)O)[C@H](OC)[C@H]4OC)[C@H](OS(=O)(=O)O)[C@H]3OS(=O)(=O)O)[C@H](OC)[C@H]2OS(=O)(=O)O)[C@H](OS(=O)(=O)O)[C@H]1OS(=O)(=O)O`, the Activity is 1320 U mg-1.
`CCCCO[C@@H]1[C@@H](OCCCC)[C@H](O[C@H]2[C@H](OS(=O)(=O)O)[C@@H](OS(=O)(=O)O)[C@H](O[C@H]3[C@H](OC)[C@@H](OS(=O)(=O)O)[C@H](O[C@H]4[C@H](OS(=O)(=O)O)[C@@H](OS(=O)(=O)O)[C@@H](OC)O[C@@H]4COS(=O)(=O)O)O[C@H]3C(=O)O)O[C@@H]2COS(=O)(=O)O)O[C@H](C(=O)O)[C@H]1O[C@@H]1O[C@H](COS(=O)(=O)O)[C@@H](OC)[C@H](OC)[C@H]1OS(=O)(=O)O` registered an Activity of 1100 U mg-1.
The figure for `CO[C@H]1O[C@H](COS(=O)(=O)O)[C@@H](O[C@@H]2O[C@@H](C(=O)O)[C@@H](O[C@@H]3O[C@H](COS(=O)(=O)O)[C@@H](O[C@@H]4O[C@H](C(=O)O)[C@@H](O[C@@H]5O[C@H](COS(=O)(=O)O)[C@@H](OC)[C@H](OC)[C@H]5OS(=O)(=O)O)[C@H](OC)[C@H]4OC)[C@H](OS(=O)(=O)O)[C@H]3OS(=O)(=O)O)[C@H](OCCCc3ccccc3)[C@H]2OS(=O)(=O)O)[C@H](OS(=O)(=O)O)[C@H]1OS(=O)(=O)O` is 434 U mg-1.
As for `CO[C@H]1O[C@H](COS(=O)(=O)O)[C@@H](O[C@@H]2O[C@@H](C(=O)O)[C@@H](O[C@@H]3O[C@H](COS(=O)(=O)O)[C@@H](O[C@@H]4O[C@H](C(=O)O)[C@@H](O[C@@H]5O[C@H](COS(=O)(=O)O)[C@@H](O)[C@H](O)[C@H]5NS(=O)(=O)O)[C@H](O)[C@H]4O)[C@H](OS(=O)(=O)O)[C@H]3NS(=O)(=O)O)[C@H](O)[C@H]2OS(=O)(=O)O)[C@H](OS(=O)(=O)O)[C@H]1NS(=O)(=O)O`, the Activity was found to be 1250 U mg-1.

These data come from ChEMBL document CHEMBL1126461, “Biologically active heparin-like fragments with a non-glycosaminoglycan structure. Part 3 : o-alkylated-o-sulphated pentasaccharides” (Bioorg Med Chem Lett, 1992).
